Key:
[1] = tested on: human lung cancer cells (H358); assay: Lung cancer spheroid cell death test; type: cell-based; details: 24 hour exposure to increasing doses; spheroids
Procedure: (§1) The respective cells were individually cultured in a growth medium prepared using RPMI-1640 medium containing 11.1 mM D-glucose with 10% fetal bovine serum, 10 mM HEPES, 2 mM L-glutamine, 1 mM sodium pyruvate, 0.05 mM 2-mercaptoethanol, and Antibiotic-Antimycotic. These cells were maintained in T75 tissue culture flasks in a humidified incubator at 37° C. and 5% CO2. The media were changed on a third day after cell plating, and the cells were passaged on day 5 by trypsinization.
(§2) Custom-made micromolds with 100 μm diameter wells were loaded with the cells (U.S. Pat. No. 8,735,154, incorporated by reference herein). The media were changed every day by partial replacement. Cell aggregates were allowed to form in the micromolds for 72 hours and then were transferred to a 100 mm non-treated tissue culture dishes for 3 additional days. The spheroids were passed through 70 μm and 100 μm cell strainers (#3431751 and #43152, Corning, Tewksbury, Mass.) and maintained in HEPES Balanced Salt Solution comprised of: 20 mM HEPES, 114 mMNaCl, 4.7 mM KCl, 1.2 mM KH2PO4, 1.16 mM MgSO4, 2.5 mM CaCl2, 25.5 mM NaHCO3 and 0.2% bovine serum albumin (fatty acid free), pH 7.2.
The lymphomas treatment methods used were identical to those described in Example 2 relative to the pediatric leukemia cells, whereas the lung cancer treatment method was the same as described in Example 1.

[2] = tested on: human ovarian cancer cells (A1847); assay: Ovarian cancer spheroid cell death test; type: cell-based; details: 24 hour exposure to increasing doses; spheroids
Procedure: as §1, §2
(§3) The cells were treated and tested as set forth in Example 1.

[3] = tested on: human prostate cancer cells (22rv1); assay: Prostate cancer spheroid cell death test; type: cell-based; details: 24 hour exposure to increasing doses; spheroids
Procedure: as §1, §2, §3

ovarian cancer cells = details: low doses of doxorubicin alone (up to 0.158, unit not given)
Procedure: In this test, the synergism of GZ17-6.02 with doxorubicin (a common chemotherapy drug) was tested on ovarian cancer cells. In this test, increasing doses of doxorubicin were administered to ovarian cancer spheroids and cell deaths were measured, as described in Example 1. The protocol involved testing doxorubicin alone at various dosages (FIG. 8, doxorubicin alone—closed circles), with comparative tests using the various dosages of doxorubicin in combination with either 0.2 mg/mL (FIG. 8 open circles) or 0.4 mg/mL (FIG. 8 closed triangles) GZ17-6.02. Additionally, the induced cell death results from use of 0.2 mg/mL GZ17-6.02 alone (FIG. 8, line A) and 0.4 mg/mL GZ17-6.02 alone (FIG. 8, line B) were determined.

SMILES	cell death (number of live cells) [1]	cell death (number of live cells) [2]	cell death (number of live cells) [3]	cell death, doxorubicin alone (ovarian cancer cells)
Cc1nccc2c1[nH]c1cc(O)ccc12.Cl [harmole hydrochloride]	demonstrated anticancer effects	demonstrated anticancer effects	demonstrated anticancer effects	–
COc1ccc2c3c([nH]c2c1)[C@@H](C)NCC3 [tetrahydro-harmine]	demonstrated anticancer effects	demonstrated anticancer effects	demonstrated anticancer effects	–
COc1ccc2c3c([nH]c2c1)C(C)=NCC3 [harmaline]	demonstrated anticancer effects	demonstrated anticancer effects	demonstrated anticancer effects	–
COc1cccc(C=O)c1O [O -vanillin]	demonstrated anticancer effects	demonstrated anticancer effects	demonstrated anticancer effects	–
COc1ccc(CO)cc1O [isovanillyl alcohol]	demonstrated anticancer effects	demonstrated anticancer effects	demonstrated anticancer effects	–
CC1=NCCc2c1[nH]c1cc(O)ccc21.Cl [harmalol hydrochloride]	demonstrated anticancer effects	demonstrated anticancer effects	demonstrated anticancer effects	–
COc1cccc2c1C(=O)c1c(O)c3c(c(O)c1C2=O)C[C@@](O)(C(=O)CO)C[C@@H]3O[C@H]1C[C@H](N)[C@H](O)[C@H](C)O1 [doxorubicin]	–	–	–	ineffective
COc1ccc(C(=O)O)cc1O [isovanillic acid]	demonstrated anticancer effects	demonstrated anticancer effects	demonstrated anticancer effects	–
COc1cc(C=O)ccc1O [vanillin]	demonstrated anticancer effects	demonstrated anticancer effects	demonstrated anticancer effects	–

From patent US11266634B2, “Methods for treating melanoma with human therapeutic agents” (Ankh Life Sciences Limited, priority 2014, dated 2022)
